Test results from patent publication US20190307749A1, “Mitochondria-Division Inhibitor 1 Protects Against Amyloid-B Induced Mitochondrial Fragmentation and Synaptic Damage in Alzheimer's Disease” (Texas Tech University System, priority 2018, published 2019).

What was measured:
[1] = test system: mouse neuroblastoma (N2a) cells; assay: Quantitative real-time RT-PCR: mRNA expression of mitochondrial dynamics, biogenesis and synaptic genes; type: cell-based; conditions: N2a cells + Aβ42; Mdivi1 given before (preventive) vs after (curative) Aβ42; mRNA and protein data
Description: (§1) Tissue culture: The N2a cells were grown for 3 days in a serum-free medium (1:1 mixture of DMEM and OptiMEM, plus penicillin and streptomycin [Invitrogen, Carlsbad, Calif., USA]) until the cells developed neuronal processes.
Quantitative real-time RT-PCR: Using the reagent TriZol (Invitrogen), total RNA was isolated from cell pellets from the 5 N2a cell groups (FIG. 1). Using primer express software (Applied Biosystems, Carlsbad, Calif., USA), the inventors designed the oligonucleotide primers for the housekeeping genes 3-actin, GAPDH, mitochondrial structural genes, fission genes (Drp1, Fis1), fusion genes (MFN1, MFN2, Opa1), biogenesis genes (PGC1c, Nrf1, Nrf2, TFAM), and synaptic genes (synaptophysin and PSD95) (see Table 1 for primer sequences and amplicon sizes). Using SYBR-Green chemistry-based quantitative real-time RT-PCR, mRNA expressions of the above-mentioned genes were measured, as described by Manczak and Reddy.
The mRNA transcript level was normalized against β-actin and the GAPDH at each dilution. The standard curve was the normalized mRNA transcript level, plotted against the log-value of the input cDNA concentration at each dilution. To compare β-actin, GAPDH, and relative quantification was performed according to the (CT) method (Applied Biosystems). […] The ΔCT-value was obtained by subtracting the average β-actin CT value from the average CT-value of the synaptic mitochondrial ETC genes and the mitochondrial structural genes. The ΔCT of untreated cells was used as the calibrator. The fold change was calculated according to the formula 2^-(Δ ΔCT), where ΔΔCT is the difference between ΔCT and the ΔCT calibrator value. To determine the statistical significance of mRNA expression, the CT value differences between the untreated cells and other experimental groups of cells were used in relation to β-actin normalization. Statistical significance was calculated, using one-way ANOVA.

[2] = test system: N2a cells; assay: Lipid peroxidation assay (4-hydroxy-2-nonenol, HNE-His ELISA); type: cell-based, mouse; conditions: Mdivi1 24 hrs or Aβ42 20 μM 6 hrs alone, vs untreated N2a cells
Description: as §1
Lipid peroxidation assay: Lipid peroxidates are unstable indicators of oxidative stress in the brain. The final product of lipid peroxidation is 4-hydroxy-2-nonenol (HNE), which was measured in the N2a cell lysates prepared from cell pellets of control and treatment groups. The inventors used an HNE-His ELISA kit (Cell BioLabs, Inc., San Diego, Calif., USA), as described in Manczak and Reddy. Briefly, freshly prepared protein as added to a 96-well protein binding plate and incubated overnight at 4° C. The protein then washed 3 times with a buffer. After the last wash, the anti-HNE-His antibody was added to the protein in the wells, incubated for 2 hours at room temperature, and then washed again 3 times. The samples were then incubated with a secondary antibody conjugated with peroxidase for 2 hours at room temperature, followed by incubation with an enzyme substrate. Optical density was measured (at 450 nm) to quantify the level of HNE.

[3] = test system: N2a cells; assay: Cell viability (MTT assay); type: cell-based, mouse; conditions: Mdivi1 24 hrs or Aβ42 20 μM 6 hrs alone, vs untreated N2a cells
Description: as §1
The N2a cells from all 5 groups (4 treatment groups and 1 control group) were harvested, and their cell pellets were collected and used for quantitative real-time RT-PCR, immunoblotting analysis of mitochondrial and synaptic proteins, and mitochondrial functional assays for hydrogen peroxide production, lipid peroxidation, cytochrome c oxidase activity, and MTT determination. Isolated mitochondria from N2a cells from all 5 groups were used to determine mitochondrial ATP as described in Reddy et al..

[4] = test system: mouse neuroblastoma (N2a) cells; assay: Immunoblotting analysis of mitochondrial dynamics, biogenesis and synaptic proteins; type: cell-based; conditions: Mdivi1 24 hrs or Aβ42 20 μM 6 hrs alone, vs untreated N2a cells
Description: as §1
Twenty g of protein was resolved from each group of cells on a 4-12% Nu-PAGE gel (Invitrogen). The resolved proteins were transferred to […] (Novax Inc., San Diego, Calif., USA) and were then incubated for 1 hour at room temperature with a blocking buffer (5% dry milk dissolved in a TBST buffer). The PVDF membranes were incubated overnight with primary antibodies (see Table 2) and washed 3 times with a TBST buffer at 10-minute intervals. They were then incubated for 2 hours with appropriate secondary antibodies, followed by 3 additional washes at 10-minute intervals. Mitochondrial and synaptic proteins were detected with cheminilumniscence reagents (Pierce Biotechnology, Rockford, Ill., USA), and the bands from immunoblots were quantified on a Kodak scanner, following manufacturer's instructions (ID Image Analysis Software, Kodak Digital Science, Kennesaw, Ga., USA), and the gel images were analyzed from gel images captured with a Kodak digital science CD camera. The lanes were marked to define the positions and specific regions of the bands. An ID fine-band command was used to locate and to scan the bands in each lane and to record the readings.

[5] = test system: N2a cells; assay: Cytochrome c oxidase activity; type: cell-based, mouse; conditions: Mdivi1 24 hrs or Aβ42 20 μM 6 hrs alone, vs untreated N2a cells
Description: as §1
Cytochrome c oxidase activity: Cytochrome oxidase activity was measured in each of the 5 groups of N2a cells. Enzyme activity was assayed spectrophotometrically using a Sigma Kit (Sigma-Aldrich) following manufacturer's instructions. […] The decrease in absorbance at […] was recorded for 1-min reactions at 10-sec intervals. Cytochrome oxidase activity was measured according to the following formula: mU/mg total mitochondrial protein=(A/min sample−(A/min blank)×1.1 mg protein×21.84). The protein concentrations were determined following the BCA method.

[6] = test system: N2a cell mitochondria; assay: Mitochondrial ATP levels (luciferase bioluminescence); type: cell-based, mouse; conditions: N2a cells; Mdivi1 24 hrs or Aβ42 20 μM 6 hrs alone; vs untreated N2a cells
Description: as §1
ATP levels: ATP levels were measured in N2a cell mitochondria from the treatment groups using an ATP determination kit (Molecular Probes). A bioluminescence assay was used, based on the reaction of ATP with recombinant firefly luciferase and its substract luciferin. Luciferase catalyzes the formation of light from ATP and luciferin. It is the emitted light that is linearly related to the concentration of ATP, which is measured with a luminometer. ATP levels were measured from mitochondrial pellets using a standard curve method.

[7] = test system: N2a cells; assay: H2O2 production (Amplex Red H2O2 assay); type: cell-based, mouse; conditions: Mdivi1 24 hrs or Aβ42 20 μM 6 hrs alone, vs untreated N2a cells
Description: as §1
Mitochondrial functional assays. H2O2 production: Using an Amplex® Red H2O2 assay kit (Molecular Probes, Eugene, Oreg., USA), H2O2 production was measured using cell pellets, as described in Manczak and Reddy. Briefly, H2O2 production was measured in the protein lysates prepared from cell pellets of control untreated N2a cells and 4 treatment groups (FIG. 1). A BCA protein assay kit (Pierce Biotechnology) was used to estimate protein concentration. The reaction mixture contained mitochondrial proteins (μg/μl), Amplex Red reagents (50 μM), horseradish peroxidase (0.1 U/ml), and a reaction buffer (1×). The mixture was incubated at room temperature for 30 minutes, followed by spectrophotometer readings of fluorescence (570 nm). Finally, H2O2 production was determined, using a standard curve equation expressed in nmol/μg mitochondrial protein.

| Compound | Protective effects against Aβ42, pre-treated vs post-treated cells [1] | Lipid peroxidation levels (4-hydroxy-2-nonenol) [2] | Cell viability [3] | Drp1 protein level [4] | Fis1 protein level [4] | Mfn1 protein level [4] | Mfn2 protein level [4] | Nrf1 protein level [4] | Nrf2 protein level [4] | Opa1 protein level [4] | PGC1α protein level [4] | PSD95 protein level [4] | Synaptophysin protein level [4] | PSD95 protein level ([4]; listed as Aβ) | Synaptophysin protein level ([4]; listed as Aβ) | Cytochrome oxidase activity [5] | Mitochondrial ATP levels [6] | H2O2 levels [7] |
| --- | --- | --- | --- | --- | --- | --- | --- | --- | --- | --- | --- | --- | --- | --- | --- | --- | --- | --- |
| O=c1c2ccccc2[nH]c(=S)n1-c1cc(O)c(Cl)cc1Cl [water soluble Mdivi1, 3-(2,4-dichloro-5-hydroxyphenyl)-2-thioxo-2,3-dihydroquinazolin-4(1H)-one] | stronger in pre-treated cells than post-treated cells | – | – | – | – | – | – | – | – | – | – | – | – | – | – | – | – | – |
| Aβ42: Aβ42 peptide purchased from Anaspec, used to induce mitochondrial and synaptic toxicity in N2a cells | – | Significantly higher | Significantly lower | significantly higher | significantly higher | significantly lower | significantly lower | Significantly lower | Significantly lower | significantly lower | Significantly lower | significantly lower | significantly lower | significantly higher | significantly higher | Significantly lower | Significantly lower | significantly increased |
